Assay results published in paper PMC10360995, “Discovery of 3-((3-amino-1H-indazol-4-yl)ethynyl)-N-(4-((4-ethylpiperazin-1-yl)methyl)-3-(trifluoromethyl)phenyl)benzamide (AKE-72), a potent Pan-BCR-ABL inhibitor including the T315I gatekeeper resistant mutant” (Journal of Enzyme Inhibition and Medicinal Chemistry, 2023).
Like-named read-outs stand apart in the source and are kept apart here.

What was measured:
CML = conditions: cited from earlier work
RPMI-8226 = test: NCI SRB anti-leukemic assay
MOLT-4 = test: NCI SRB anti-leukemic assay
ABL^M351T = ABL^M351T (Homo sapiens, UniProt P00519, M351T); test: ABL mutant enzymatic assay; assay type: biochemical; conditions: 10-dose, 3-fold dilution from 20 μM, 10 μM ATP
Description: (§1) Compound 5 (AKE-72) was further profiled against a number of clinically relevant ABL mutants, including E255K, F317I, H396P, M351T, and Q252H (Table 2). This outcome confirmed the ability of compound 5 to potently suppress the activity of the clinically relevant ABL mutants in single-digit nanomolar IC50 values.

ABL^Q252H = ABL^Q252H (Homo sapiens, UniProt P00519, Q252H); test: ABL mutant enzymatic assay; assay type: biochemical; conditions: 10-dose, 3-fold dilution from 20 μM, 10 μM ATP
Description: as §1

ABL^E255K = ABL^E255K (Homo sapiens, UniProt P00519, E255K); test: ABL mutant enzymatic assay; assay type: biochemical; conditions: 10-dose, 3-fold dilution from 20 μM, 10 μM ATP
Description: as §1

ABL^H396P = ABL^H396P (Homo sapiens, UniProt P00519, H396P); test: ABL mutant enzymatic assay; assay type: biochemical; conditions: 10-dose, 3-fold dilution from 20 μM, 10 μM ATP
Description: as §1

ABL^F317I = ABL^F317I (Homo sapiens, UniProt P00519, F317I); test: ABL mutant enzymatic assay; assay type: biochemical; conditions: 10-dose, 3-fold dilution from 20 μM, 10 μM ATP
Description: as §1

HL-60(TB) [1] = test: cells; conditions: Homo sapiens
K-562 = test: NCI SRB anti-leukemic assay
SR = test: NCI SRB anti-leukemic assay
HL-60(TB) [2] = conditions: five-dose assay
BCR-ABL^WT = BCR-ABL^WT (Homo sapiens, UniProt P00519); test: BCR-ABL WT kinase inhibition assay; assay type: biochemical
CCRF-CEM = test: NCI SRB anti-leukemic assay
K562 (Bcr-Abl positive) = test: Cellular proliferation assay; assay type: cell-based; conditions: Homo sapiens, K562, read-out: GI50 K562 (Bcr-Abl positive)
Description: (§2) We also tested AKE-72 against BCR-ABL-positive and BCR-ABL-negative cell lines.
(§3) 1.8. Cytochrome P450 Assay
(§4) The binding site was defined based

U937 (Bcr-Abl negative) = test: Cellular proliferation assay; assay type: cell-based; conditions: Homo sapiens, U-937, read-out: GI50 U937 (Bcr-Abl negative)
Description: as §2, §3, §4

Ba/F3 mouse pro-B cells = test: Cellular proliferation assay; assay type: cell-based; conditions: BaF3, read-out: GI50 Ba/F3 (mouse pro-B cell)
Description: as §2, §3, §4

CYP2C9 = molecular target: T1, CYP2C9 (Homo sapiens, UniProt P11712); test: Cytochrome P450 inhibition assay (Vivid CYP450 kit); assay type: in vitro ADME; conditions: recombinant CYP2C9 (Vivid CYP450 screening kit), single-dose duplicate, read-out: CYP inhibition % CYP2C9
T1 construct: purchased ThermoFisher (Vivid CYP450 screening kit), run at RBC
Description: (§5) Azole derivatives are well known for their ability to inhibit cytochrome P450 isozymes.
as §3, §4

CYP3A4 = molecular target: T2, CYP3A4 (Homo sapiens, UniProt P08684); test: as above; assay type: in vitro ADME; conditions: single-dose duplicate, read-out: CYP inhibition % CYP3A4
T2 construct: purchased ThermoFisher (Vivid CYP450 screening kit), run at RBC
T2 sequence (P08684 whole entry): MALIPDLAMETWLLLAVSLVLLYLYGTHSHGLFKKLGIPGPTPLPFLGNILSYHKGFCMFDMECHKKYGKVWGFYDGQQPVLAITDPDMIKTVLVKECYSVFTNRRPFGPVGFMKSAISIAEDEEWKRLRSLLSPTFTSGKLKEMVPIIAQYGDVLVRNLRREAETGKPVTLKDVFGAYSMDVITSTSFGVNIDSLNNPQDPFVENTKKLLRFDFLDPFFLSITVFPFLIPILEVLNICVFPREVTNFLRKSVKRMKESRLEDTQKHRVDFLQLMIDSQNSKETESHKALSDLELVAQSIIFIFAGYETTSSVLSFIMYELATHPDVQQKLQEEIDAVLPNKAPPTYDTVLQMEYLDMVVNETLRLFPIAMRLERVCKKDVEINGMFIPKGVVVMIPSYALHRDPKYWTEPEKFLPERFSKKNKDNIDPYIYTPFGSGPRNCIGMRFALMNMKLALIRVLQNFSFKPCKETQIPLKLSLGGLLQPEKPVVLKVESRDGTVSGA
Description: as §5, §3, §4

CYP2D6 = molecular target: T3, CYP2D6 (Homo sapiens, UniProt P10635); test: as above; assay type: in vitro ADME
T3 construct: purchased ThermoFisher (Vivid CYP450 screening kit), run at RBC
T3 sequence (P10635 whole entry): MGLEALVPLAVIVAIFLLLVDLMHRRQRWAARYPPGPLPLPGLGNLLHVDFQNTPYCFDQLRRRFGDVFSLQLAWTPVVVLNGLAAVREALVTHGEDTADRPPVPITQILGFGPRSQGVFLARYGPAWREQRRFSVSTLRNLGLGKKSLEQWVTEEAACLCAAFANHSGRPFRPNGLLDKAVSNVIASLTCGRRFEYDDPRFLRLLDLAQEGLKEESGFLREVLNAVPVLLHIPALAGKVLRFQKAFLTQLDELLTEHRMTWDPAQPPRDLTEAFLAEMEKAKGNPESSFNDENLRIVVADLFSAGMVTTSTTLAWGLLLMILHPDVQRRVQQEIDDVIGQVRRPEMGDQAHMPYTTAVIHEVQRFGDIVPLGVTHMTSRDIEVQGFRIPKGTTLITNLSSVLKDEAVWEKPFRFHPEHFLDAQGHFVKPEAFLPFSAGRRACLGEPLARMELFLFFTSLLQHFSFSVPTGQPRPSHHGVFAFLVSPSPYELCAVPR
Description: as §5, §3, §4

CYP1A2 = molecular target: T4, CYP1A2 (Homo sapiens, UniProt P05177); test: as above; assay type: in vitro ADME
T4 construct: purchased ThermoFisher (Vivid CYP450 screening kit), run at RBC
T4 sequence (P05177 whole entry): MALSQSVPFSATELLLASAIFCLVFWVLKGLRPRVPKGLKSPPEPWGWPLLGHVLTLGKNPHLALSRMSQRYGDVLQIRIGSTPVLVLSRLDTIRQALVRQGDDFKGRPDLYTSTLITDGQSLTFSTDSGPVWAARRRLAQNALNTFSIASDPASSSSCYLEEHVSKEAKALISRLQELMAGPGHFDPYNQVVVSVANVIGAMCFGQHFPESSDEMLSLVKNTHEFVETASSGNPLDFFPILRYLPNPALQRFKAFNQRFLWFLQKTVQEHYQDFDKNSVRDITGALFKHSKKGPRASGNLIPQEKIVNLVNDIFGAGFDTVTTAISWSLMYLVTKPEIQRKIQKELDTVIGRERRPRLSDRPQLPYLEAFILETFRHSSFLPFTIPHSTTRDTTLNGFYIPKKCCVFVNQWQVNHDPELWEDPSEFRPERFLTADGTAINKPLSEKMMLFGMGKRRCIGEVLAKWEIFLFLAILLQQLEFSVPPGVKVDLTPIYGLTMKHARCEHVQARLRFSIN
Description: as §5, §3, §4

c-Src = c-Src (Homo sapiens, UniProt P12931); test: Kinase panel profiling at 50 nM; assay type: biochemical; conditions: range printed for c-Src and FMS together
Description: (§6) Figure 3. Enzyme inhibition percentage (relative to DMSO controls) of compound 5 (0.05 µM) against a panel of 18 kinases.

YES = YES (Homo sapiens, UniProt P07947); test: Kinase panel profiling at 50 nM; assay type: biochemical; conditions: range given for ten kinases together
Chain of YES (P07947 whole entry): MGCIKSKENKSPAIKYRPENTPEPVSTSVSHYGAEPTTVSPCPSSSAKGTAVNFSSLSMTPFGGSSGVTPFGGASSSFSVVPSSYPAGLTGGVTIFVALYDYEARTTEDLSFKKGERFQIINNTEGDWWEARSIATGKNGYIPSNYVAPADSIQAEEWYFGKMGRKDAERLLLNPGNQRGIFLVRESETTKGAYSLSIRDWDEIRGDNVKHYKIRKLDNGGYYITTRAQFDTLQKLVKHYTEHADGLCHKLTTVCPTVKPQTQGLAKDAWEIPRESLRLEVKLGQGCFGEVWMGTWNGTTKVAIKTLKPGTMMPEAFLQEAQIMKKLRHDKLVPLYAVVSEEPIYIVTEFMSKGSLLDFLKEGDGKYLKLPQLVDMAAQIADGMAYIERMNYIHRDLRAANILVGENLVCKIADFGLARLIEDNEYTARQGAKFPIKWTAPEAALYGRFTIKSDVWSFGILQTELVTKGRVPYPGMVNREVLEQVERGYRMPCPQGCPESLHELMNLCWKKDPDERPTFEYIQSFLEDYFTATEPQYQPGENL
Description: as §6

LCK = LCK (Homo sapiens, UniProt P06239); test: Kinase panel profiling at 50 nM; assay type: biochemical; conditions: range given for ten kinases together
Description: as §6

FGFR1 = FGFR1 (Homo sapiens, UniProt P11362); test: Kinase panel profiling at 50 nM; assay type: biochemical; conditions: range given for ten kinases together
Description: as §6

LYN = LYN (Homo sapiens, UniProt P07948); test: Kinase panel profiling at 50 nM; assay type: biochemical; conditions: range given for ten kinases together
Description: as §6

RET = RET (Homo sapiens, UniProt P07949); test: Kinase panel profiling at 50 nM; assay type: biochemical; conditions: range given for ten kinases together
Description: as §6

c-Kit = c-Kit (Homo sapiens, UniProt P10721); test: Kinase panel profiling at 50 nM; assay type: biochemical; conditions: range given for ten kinases together
Description: as §6

FYN = FYN (Homo sapiens, UniProt P06241); test: Kinase panel profiling at 50 nM; assay type: biochemical; conditions: range given for ten kinases together
Chain of FYN (P06241 whole entry): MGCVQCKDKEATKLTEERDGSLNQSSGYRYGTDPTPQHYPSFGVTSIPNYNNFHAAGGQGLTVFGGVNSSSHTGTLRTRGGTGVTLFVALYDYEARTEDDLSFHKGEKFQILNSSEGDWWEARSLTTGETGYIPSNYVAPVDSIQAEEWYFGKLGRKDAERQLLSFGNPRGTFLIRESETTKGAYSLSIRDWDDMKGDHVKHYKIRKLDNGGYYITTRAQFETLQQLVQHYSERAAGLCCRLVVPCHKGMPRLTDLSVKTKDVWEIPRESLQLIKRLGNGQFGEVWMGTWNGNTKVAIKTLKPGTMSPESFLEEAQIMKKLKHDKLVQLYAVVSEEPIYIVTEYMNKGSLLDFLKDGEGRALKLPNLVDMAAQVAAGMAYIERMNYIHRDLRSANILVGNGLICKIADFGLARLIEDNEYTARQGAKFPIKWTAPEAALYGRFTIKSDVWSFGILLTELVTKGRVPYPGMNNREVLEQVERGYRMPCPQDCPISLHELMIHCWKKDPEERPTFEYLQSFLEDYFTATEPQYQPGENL
Description: as §6

FLT3 = FLT3 (Homo sapiens, UniProt P36888); test: Kinase panel profiling at 50 nM; assay type: biochemical; conditions: range given for ten kinases together
Description: as §6

PDGFRβ = PDGFRβ (Homo sapiens, UniProt P09619); test: Kinase panel profiling at 50 nM; assay type: biochemical; conditions: range given for ten kinases together
Description: as §6

FMS = FMS (Homo sapiens, UniProt P07333); test: Kinase panel profiling at 50 nM; assay type: biochemical; conditions: range printed for c-Src and FMS together
Chain of FMS (P07333 20-972): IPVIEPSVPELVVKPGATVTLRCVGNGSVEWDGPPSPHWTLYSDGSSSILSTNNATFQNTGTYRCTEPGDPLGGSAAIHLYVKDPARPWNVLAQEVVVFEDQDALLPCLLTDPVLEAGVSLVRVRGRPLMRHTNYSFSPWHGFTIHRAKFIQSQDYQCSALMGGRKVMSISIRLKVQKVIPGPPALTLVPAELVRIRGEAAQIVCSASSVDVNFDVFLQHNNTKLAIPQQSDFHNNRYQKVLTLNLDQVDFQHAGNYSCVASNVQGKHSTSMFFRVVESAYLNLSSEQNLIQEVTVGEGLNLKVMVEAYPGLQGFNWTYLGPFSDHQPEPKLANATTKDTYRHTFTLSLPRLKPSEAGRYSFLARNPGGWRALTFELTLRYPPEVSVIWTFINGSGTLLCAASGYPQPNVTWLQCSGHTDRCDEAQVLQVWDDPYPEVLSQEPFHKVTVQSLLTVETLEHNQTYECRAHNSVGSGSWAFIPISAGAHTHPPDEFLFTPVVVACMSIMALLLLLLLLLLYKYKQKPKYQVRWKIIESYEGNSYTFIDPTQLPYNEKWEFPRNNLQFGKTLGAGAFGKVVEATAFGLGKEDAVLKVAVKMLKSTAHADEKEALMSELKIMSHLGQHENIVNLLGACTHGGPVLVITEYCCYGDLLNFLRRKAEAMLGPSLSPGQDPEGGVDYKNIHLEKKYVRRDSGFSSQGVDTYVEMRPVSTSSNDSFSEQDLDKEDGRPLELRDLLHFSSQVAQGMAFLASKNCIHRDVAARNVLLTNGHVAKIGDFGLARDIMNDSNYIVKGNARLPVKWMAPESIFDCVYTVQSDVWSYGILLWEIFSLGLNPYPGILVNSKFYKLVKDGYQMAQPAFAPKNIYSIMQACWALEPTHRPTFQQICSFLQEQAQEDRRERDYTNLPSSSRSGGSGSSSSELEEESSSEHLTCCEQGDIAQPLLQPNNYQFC
Description: as §6

[3] = system: the other investigated kinases (panel of 18 kinases); test: Kinase panel profiling at 50 nM; assay type: biochemical
Description: as §6

VEGFR2 = VEGFR2 (Homo sapiens, UniProt P35968); test: Kinase panel profiling at 50 nM; assay type: biochemical; conditions: range given for ten kinases together
Chain of VEGFR2 (P35968 20-1356): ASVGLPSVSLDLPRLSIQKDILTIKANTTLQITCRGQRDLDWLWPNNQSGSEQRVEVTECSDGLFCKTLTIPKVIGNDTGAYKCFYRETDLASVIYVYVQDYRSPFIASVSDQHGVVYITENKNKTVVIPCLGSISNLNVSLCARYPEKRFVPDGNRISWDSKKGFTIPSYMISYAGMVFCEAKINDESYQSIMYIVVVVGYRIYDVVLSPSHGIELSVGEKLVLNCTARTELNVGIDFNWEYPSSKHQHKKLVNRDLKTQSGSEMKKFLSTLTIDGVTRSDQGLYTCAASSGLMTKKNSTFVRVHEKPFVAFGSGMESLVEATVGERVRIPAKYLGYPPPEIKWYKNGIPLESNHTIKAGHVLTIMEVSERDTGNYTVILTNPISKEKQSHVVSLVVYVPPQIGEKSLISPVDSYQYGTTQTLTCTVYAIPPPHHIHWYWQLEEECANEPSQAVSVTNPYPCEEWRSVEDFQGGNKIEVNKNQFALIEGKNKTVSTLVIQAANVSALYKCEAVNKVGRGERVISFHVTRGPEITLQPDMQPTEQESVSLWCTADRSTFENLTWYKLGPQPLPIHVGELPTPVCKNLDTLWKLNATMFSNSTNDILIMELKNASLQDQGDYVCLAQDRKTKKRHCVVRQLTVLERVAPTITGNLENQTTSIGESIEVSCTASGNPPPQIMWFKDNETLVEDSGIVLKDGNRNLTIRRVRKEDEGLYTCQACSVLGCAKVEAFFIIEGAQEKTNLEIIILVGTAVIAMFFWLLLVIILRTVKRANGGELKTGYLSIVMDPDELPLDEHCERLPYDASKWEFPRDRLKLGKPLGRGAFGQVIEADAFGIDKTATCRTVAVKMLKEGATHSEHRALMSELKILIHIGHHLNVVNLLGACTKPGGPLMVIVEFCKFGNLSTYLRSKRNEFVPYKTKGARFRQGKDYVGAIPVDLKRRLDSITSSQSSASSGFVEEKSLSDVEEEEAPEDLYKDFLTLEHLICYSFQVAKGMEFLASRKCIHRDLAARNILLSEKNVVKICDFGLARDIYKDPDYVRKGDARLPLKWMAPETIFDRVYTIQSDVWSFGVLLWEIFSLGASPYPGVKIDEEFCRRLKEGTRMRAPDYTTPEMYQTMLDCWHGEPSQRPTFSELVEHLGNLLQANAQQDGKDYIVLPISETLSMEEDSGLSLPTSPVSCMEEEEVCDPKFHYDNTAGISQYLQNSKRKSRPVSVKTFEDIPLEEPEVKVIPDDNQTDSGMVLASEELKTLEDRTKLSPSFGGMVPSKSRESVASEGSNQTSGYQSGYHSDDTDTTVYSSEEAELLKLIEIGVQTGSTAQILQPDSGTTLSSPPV
Description: as §6

Q: For `Cc1ccc(NC(=O)c2ccc(CN3CCN(C)CC3)cc2)cc1Nc1nccc(-c2cccnc2)n1` [Imatinib], which long-term success rate (CML; CML, after 10 years) is on record?
A: 83.3%

Q: And the “overall 5-year survival rate” value (CML; patients diagnosed with CML)?
A: 89%

Q: What does the source list for `CCN1CCN(Cc2ccc(NC(=O)c3cccc(C#Cc4cccc5[nH]nc(N)c45)c3)cc2C(F)(F)F)CC1` [Compound 5, 3-((3-amino-1H-indazol-4-yl)ethynyl)-N-(4-((4-ethylpiperazin-1-yl)methyl)-3-(trifluoromethyl)phenyl)benzamide]?
A: GI50 (RPMI-8226; Homo sapiens, RPMI-8226, read-out: GI50 RPMI-8226): 488 nM; CC50 (RPMI-8226; Homo sapiens, RPMI-8226, read-out: LC50 (half-maximal lethal concentration) RPMI-8226): > 100000 nM; TGI (total growth inhibition) RPMI-8226 (RPMI-8226; five-dose assay): 2660 nM; GI50 (MOLT-4; Homo sapiens, MOLT-4, read-out: GI50 MOLT-4): 227 nM; CC50 (MOLT-4; Homo sapiens, MOLT-4, read-out: LC50 (half-maximal lethal concentration) MOLT-4): 5130 nM; TGI (total growth inhibition) MOLT-4 (MOLT-4; five-dose assay): 1160 nM; IC50 (ABL^M351T): 3.44 nM; IC50 (ABL^Q252H): 3.88 nM; IC50 (ABL^E255K): 8.98 nM; IC50 (ABL^H396P): < 1.02 nM; IC50 (ABL^F317I): 3.12 nM; GI50 (HL-60(TB) [1]; HL-60, read-out: GI50 HL-60(TB)): 97.9 nM; CC50 (HL-60(TB) [1]; HL-60, read-out: LC50 (half-maximal lethal concentration) HL-60(TB)): 5170 nM; GI50 (K-562; Homo sapiens, K562, read-out: GI50 K-562): < 10 nM; CC50 (K-562; Homo sapiens, K562, read-out: LC50 (half-maximal lethal concentration) K-562): 5250 nM; TGI (total growth inhibition) K-562 (K-562; five-dose assay): 154 nM; TGI K-562 (K-562; five-dose assay): 154 nM; GI50 (SR; Homo sapiens, SR, read-out: GI50 SR): 238 nM; CC50 (SR; Homo sapiens, SR, read-out: LC50 (half-maximal lethal concentration) SR): > 100000 nM; TGI (total growth inhibition) SR (SR; five-dose assay): 732 nM; TGI (total growth inhibition) HL-60(TB) (HL-60(TB) [2]): 1040 nM; IC50 (BCR-ABL^WT; 10-dose duplicate, 3-fold serial dilution, 10 µM ATP): < 0.51 nM; fold superior potency against BCR-ABL^WT versus lead indazole II (BCR-ABL^WT; relative to II): > 300 folds; GI50 (CCRF-CEM; Homo sapiens, CCRF-CEM, read-out: GI50 CCRF-CEM): 436 nM; CC50 (CCRF-CEM; Homo sapiens, CCRF-CEM, read-out: LC50 (half-maximal lethal concentration) CCRF-CEM): > 100000 nM; TGI (total growth inhibition) CCRF-CEM (CCRF-CEM; five-dose assay): 3040 nM; GI50 (K562 (Bcr-Abl positive)): 5.9 nM; GI50 (U937 (Bcr-Abl negative)): 1900 ± 61 nM; GI50 (Ba/F3 mouse pro-B cells): 4000 ± 1170 nM; inhibition at 10 µM (CYP2C9): 50.67 ± 0.075%; inhibition at 10 µM (CYP3A4; Vivid CYP450 screening kit (CYP3A4 isozyme)): 90.6%; inhibition at 10 µM (CYP3A4; recombinant CYP3A4 (Vivid CYP450 screening kit)): 96.57 ± 0.065%; IC50 (CYP2D6): > 10000 nM; inhibition at 10 µM (CYP2D6; human, recombinant CYP2D6 (Vivid CYP450 screening kit), 10 µM, single-dose duplicate, read-out: CYP inhibition % CYP2D6): 13.92 ± 0.06%; IC50 (CYP1A2): > 10000 nM; inhibition at 10 µM (CYP1A2; human, recombinant CYP1A2 (Vivid CYP450 screening kit), 10 µM, single-dose duplicate, read-out: CYP inhibition % CYP1A2): 9.88 ± 0.09%; inhibition at 0.05 µM (c-Src): 64.5 to 73%; inhibition at 0.05 µM (YES): 83.9 to 99.3%; inhibition at 0.05 µM (LCK): 83.9 to 99.3%; inhibition at 0.05 µM (FGFR1): 83.9 to 99.3%; inhibition at 0.05 µM (LYN): 83.9 to 99.3%; inhibition at 0.05 µM (RET): 83.9 to 99.3%; inhibition at 0.05 µM (c-Kit): 83.9 to 99.3%; inhibition at 0.05 µM (FYN): 83.9 to 99.3%; inhibition at 0.05 µM (FLT3): 83.9 to 99.3%; inhibition at 0.05 µM (PDGFRβ): 83.9 to 99.3%; inhibition at 0.05 µM (FMS): 64.5 to 73%; inhibition of the other investigated kinases [3]: no inhibition; inhibition at 0.05 µM (VEGFR2): 83.9 to 99.3%

Q: Which GI50 (Ba/F3 mouse pro-B cells) does the source give for `Cc1ccc(C(=O)Nc2ccc(CN3CCN(C)CC3)c(C(F)(F)F)c2)cc1C#Cc1cnc2cccnn12` [Ponatinib, reference compound] here?
A: 708 ± 37 nM
